Assays:
[1] = system: goosegrass; test: Test C pre-/postemergence herbicide test; assay type: in vivo, Eleusine indica
In short: (§1)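 Pre/post spray; non-phytotoxic solvent + surfactant. Post-timing 1–4 leaves, 2–18 cm. Read-out: visual % control vs untreated, day 12–14, greenhouse.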

[2] = system: bermudagrass; test: Test C pre-/postemergence herbicide test; assay type: in vivo, Cynodon dactylon
In short: as §1

[3] = system: common (oilseed) sunflower; test: Test C pre-/postemergence herbicide test; assay type: in vivo, Helianthus annuus
In short: as §1

[4] = system: giant foxtail; test: Test C pre-/postemergence herbicide test; assay type: in vivo, Setaria faberi
In short: as §1

[5] = system: barnyardgrass; test: Test A pre-/postemergence herbicide test; assay type: in vivo, Echinochloa crus-galli; details: for Plant response rating, Barnyardgrass: Postemergence; for Barnyardgrass plant response rating: Preemergence
In short: (§2)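 Greenhouse injury scoring (0–100, complete control = 100) at approximately ten days follows simultaneous pre- and postemergence application. Soil received a directed spray after seeding; seedlings of 2–10 cm at the one- to two-leaf stage were sprayed to runoff.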

[6] = system: large crabgrass; test: Test A pre-/postemergence herbicide test; assay type: in vivo, Digitaria sanguinalis; details: for Plant response rating, Crabgrass, Large: Postemergence; for Crabgrass, Large plant response rating: Preemergence
In short: as §2

[7] = system: redroot pigweed; test: Test A pre-/postemergence herbicide test; assay type: in vivo, Amaranthus retroflexus; details: for Plant response rating, Pigweed: Postemergence; for Pigweed plant response rating: Preemergence
In short: as §2

[8] = system: common ragweed; test: Test C pre-/postemergence herbicide test; assay type: in vivo, Ambrosia elatior; set-up: key to Plant response rating, Ragweed: 0 = no effect, 100 = complete control
In short: as §1

[9] = system: woolly cupgrass; test: Test C pre-/postemergence herbicide test; assay type: in vivo, Eriochloa villosa
In short: as §1

[10] = 125 g ai/ha, scale 0 (no effect) to 100 (complete control), visual, 12 to 14 days, preemergence
[11] = 250 g ai/ha, scale 0 to 100 (0 no effect, 100 complete control), visual, 12 to 14 days, preemergence
[12] = Postemergence, 125 g ai/ha, scale 0 to 100, 0 no effect, 100 complete control
[13] = Postemergence, 250 g ai/ha, scale 0 to 100, 0 no effect, 100 complete control
[14] = postemergence, 62 g ai/ha, scale 0 to 100
[15] = 500 g ai/ha, 0 to 100 scale, 0 no effect, 100 complete control
[16] = 2000 g ai/ha, 0 to 100 scale, 0 no effect, 100 complete control
[17] = 500 g ai/ha, visual rating, 0 to 100 scale (0 no effect, 100 complete control)
[18] = 62 g ai/ha, preemergence, scale 0 to 100
[19] = 250 g ai/ha, scale 0-100, preemergence
[20] = 500 g ai/ha, scale 0 to 100 (0 no effect, 100 complete control), visual, 12 to 14 days, preemergence
[21] = Preemergence, 500 g ai/ha, scale 0 to 100, 0 no effect, 100 complete control

Compound: CCn1nc(C(C)(C)C)cc1C(=O)Nc1cccc(C(=O)NC2CC2)c1 [Compound 44]
- Plant response rating (0 = no effect, 100 = complete control), Goosegrass ([1]; 62 g ai/ha, preemergence): 10
- Plant response rating, Goosegrass [1, 10]: 30
- Plant response rating, Goosegrass [1, 11]: 50
- Plant response rating, Goosegrass [1, 12]: 40
- Plant response rating, Goosegrass [1, 13]: 50
- Plant response rating, Goosegrass [1, 14]: 40
- Plant response rating (0 = no effect, 100 = complete control), Bermudagrass ([2]; 62 g ai/ha, preemergence): 0
- Plant response rating, Bermudagrass [2, 11]: 20
- Plant response rating, Bermudagrass [2, 12]: 90
- Plant response rating (0 = no effect, 100 = complete control), Sunflower ([3]; 62 g ai/ha, preemergence): 0
- Plant response rating, Sunflower [3, 10]: 0
- Plant response rating, Sunflower [3, 11]: 0
- Plant response rating (0 = no effect, 100 = complete control), Foxtail, Giant ([4]; 62 g ai/ha, preemergence): 10
- Plant response rating, Foxtail, Giant [4, 10]: 10
- Plant response rating, Foxtail, Giant [4, 11]: 10
- Plant response rating, Foxtail, Giant [4, 12]: 30
- Plant response rating, Foxtail, Giant [4, 13]: 50
- Plant response rating, Foxtail, Giant [4, 14]: 30
- Plant response rating, Barnyardgrass [5, 15]: 90
- Plant response rating, Barnyardgrass [5, 16]: 100
- Barnyardgrass plant response rating [5, 17]: 75
- Barnyardgrass plant response rating [5, 16]: 90
- Plant response rating, Crabgrass, Large [6, 15]: 55
- Plant response rating, Crabgrass, Large [6, 16]: 80
- Crabgrass, Large plant response rating [6, 17]: 45
- Crabgrass, Large plant response rating [6, 16]: 90
- Plant response rating, Pigweed [7, 15]: 100
- Plant response rating, Pigweed [7, 16]: 100
- Pigweed plant response rating [7, 17]: 100
- Pigweed plant response rating [7, 16]: 100
- Plant response rating (0 = no effect, 100 = complete control), Ragweed ([8]; 62 g ai/ha, preemergence): 0
- Plant response rating, Ragweed [8, 10]: 30
- Plant response rating, Ragweed [8, 11]: 70
- Plant response rating, Ragweed [8, 13]: 90
- Plant response rating, Ragweed [8, 14]: 50
- Plant response rating (0 = no effect, 100 = complete control), Cupgrass, Woolly ([9]; 62 g ai/ha, preemergence): 0
- Plant response rating, Cupgrass, Woolly [9, 10]: 10
- Plant response rating, Cupgrass, Woolly [9, 11]: 10
- Plant response rating, Cupgrass, Woolly [9, 12]: 60
- Plant response rating, Cupgrass, Woolly [9, 13]: 60
- Plant response rating, Cupgrass, Woolly [9, 14]: 50

Compound: Cc1nn(C(C)(C)C)nc1C(=O)Nc1cccc(C(=S)N(C)C)c1 [Compound 419]
- Plant response rating, Goosegrass [1, 18]: 45
- Plant response rating (0 = no effect, 100 = complete control), Goosegrass ([1]; 125 g ai/ha, preemergence): 95
- Plant response rating, Goosegrass [1, 19]: 100
- Plant response rating, Goosegrass [1, 20]: 100
- Plant response rating, Bermudagrass ([2]; 62 g ai/ha, preemergence, scale 0 to 100, 0 no effect, 100 complete control): 100
- Plant response rating (0 = no effect, 100 = complete control), Bermudagrass ([2]; 125 g ai/ha, preemergence): 100
- Plant response rating, Bermudagrass [2, 19]: 100
- Plant response rating, Bermudagrass [2, 20]: 100
- Plant response rating, Sunflower [3, 18]: 0
- Plant response rating (0 = no effect, 100 = complete control), Sunflower ([3]; 125 g ai/ha, preemergence): 0
- Plant response rating, Sunflower [3, 20]: 95
- Plant response rating, Foxtail, Giant [4, 18]: 75
- Plant response rating (0 = no effect, 100 = complete control), Foxtail, Giant ([4]; 125 g ai/ha, preemergence): 85
- Plant response rating, Foxtail, Giant [4, 19]: 95
- Plant response rating, Foxtail, Giant [4, 20]: 100
- Plant response rating, Ragweed [8, 18]: 10
- Plant response rating (0 = no effect, 100 = complete control), Ragweed ([8]; 125 g ai/ha, preemergence): 15
- Plant response rating, Ragweed [8, 20]: 100
- Plant response rating, Cupgrass, Woolly [9, 18]: 0
- Plant response rating (0 = no effect, 100 = complete control), Cupgrass, Woolly ([9]; 125 g ai/ha, preemergence): 15
- Plant response rating, Cupgrass, Woolly [9, 19]: 45
- Plant response rating, Cupgrass, Woolly [9, 20]: 65

Compound: CCn1nc(C(C)(C)C)cc1C(=O)Nc1cc(C(=O)N(C)C)ccn1 [Compound 156, 2-[[[3-(1,1-dimethylethyl)-1-ethyl-1H-pyrazol-5-yl]carbonyl]amino]-N,N-dimethyl-4-pyridinecarboxamide]
- pest or weed control at 62 g/ha ([1]; Eleusine indica, pre-emergence, 312 h, 62 g ai/ha, preemergence, scale 0 to 100, read-out: Plant response rating, Goosegrass): 83%
- pest or weed control at 125 g/ha ([1]; Eleusine indica, pre-emergence, 312 h, 125 g ai/ha, scale 0 (no effect) to 100 (complete control), visual, 12 to 14 days, read-out: Plant response rating, Goosegrass): 90%
- Goosegrass plant response rating [1, 21]: 95
- pest or weed control at 16 g/ha ([2]; Cynodon dactylon, pre-emergence, 312 h, 16 g ai/ha, scale 0 to 100, 0 no effect, 100 complete control, last section of Table C (species set of preemergence test), read-out: Plant response rating, Bermudagrass): 0%
- pest or weed control at 31 g/ha ([2]; Cynodon dactylon, pre-emergence, 312 h, 31 g ai/ha, scale 0 to 100, 0 no effect, 100 complete control, last section of Table C (species set of preemergence test), read-out: Plant response rating, Bermudagrass): 60%
- pest or weed control at 62 g/ha ([2]; Cynodon dactylon, pre-emergence, 312 h, 62 g ai/ha, preemergence, scale 0 to 100, 0 no effect, 100 complete control, read-out: Plant response rating, Bermudagrass): 88%
- pest or weed control at 125 g/ha ([2]; Cynodon dactylon, pre-emergence, 312 h, 125 g ai/ha, scale 0 (no effect) to 100 (complete control), visual, 12 to 14 days, read-out: Plant response rating, Bermudagrass): 93%
- pest or weed control at 250 g/ha ([2]; Cynodon dactylon, pre-emergence, 312 h, 250 g ai/ha, scale 0 to 100 (0 no effect, 100 complete control), visual, 12 to 14 days, read-out: Plant response rating, Bermudagrass): 95%
- pest or weed control at 500 g/ha ([2]; Cynodon dactylon, pre-emergence, 312 h, Preemergence, 500 g ai/ha, scale 0 to 100, 0 no effect, 100 complete control, read-out: Bermudagrass plant response rating): 95%
- pest or weed control at 62 g/ha ([3]; Helianthus annuus, pre-emergence, 62 g ai/ha, preemergence, scale 0 to 100, read-out: Plant response rating, Sunflower): 25%
- pest or weed control at 125 g/ha ([3]; Helianthus annuus, pre-emergence, 125 g ai/ha, scale 0 (no effect) to 100 (complete control), visual, 12 to 14 days, read-out: Plant response rating, Sunflower): 45%
- Sunflower plant response rating [3, 21]: 85
- Foxtail, Giant plant response rating [4, 21]: 95
- pest or weed control at 62 g/ha ([4]; Setaria faberi, pre-emergence, 312 h, 62 g ai/ha, preemergence, scale 0 to 100, read-out: Plant response rating, Foxtail, Giant): 75%
- pest or weed control at 125 g/ha ([4]; Setaria faberi, pre-emergence, 312 h, 125 g ai/ha, scale 0 (no effect) to 100 (complete control), visual, 12 to 14 days, read-out: Plant response rating, Foxtail, Giant): 83%
- pest or weed control at 250 g/ha ([4]; Setaria faberi, pre-emergence, 312 h, 250 g ai/ha, scale 0 to 100 (0 no effect, 100 complete control), visual, 12 to 14 days, read-out: Plant response rating, Foxtail, Giant): 85%
- pest or weed control at 62 g/ha ([8]; Ambrosia artemisiifolia, pre-emergence, 62 g ai/ha, preemergence, scale 0 to 100, read-out: Plant response rating, Ragweed): 90%
- pest or weed control at 125 g/ha ([8]; Ambrosia artemisiifolia, pre-emergence, 125 g ai/ha, scale 0 (no effect) to 100 (complete control), visual, 12 to 14 days, read-out: Plant response rating, Ragweed): 100%
- Ragweed plant response rating [8, 21]: 100
- pest or weed control at 62 g/ha ([9]; Eriochloa villosa, pre-emergence, 312 h, 62 g ai/ha, preemergence, scale 0 to 100, read-out: Plant response rating, Cupgrass, Woolly): 33%
- pest or weed control at 125 g/ha ([9]; Eriochloa villosa, pre-emergence, 312 h, 125 g ai/ha, scale 0 (no effect) to 100 (complete control), visual, 12 to 14 days, read-out: Plant response rating, Cupgrass, Woolly): 70%
- pest or weed control at 250 g/ha ([9]; Eriochloa villosa, pre-emergence, 312 h, 250 g ai/ha, scale 0 to 100 (0 no effect, 100 complete control), visual, 12 to 14 days, read-out: Plant response rating, Cupgrass, Woolly): 80%
- Cupgrass, Woolly plant response rating [9, 21]: 90

Source: patent publication US20060069132A1, “Azolecarboxamide herbicides” (priority 2004, published 2006)
